Experimental data: article PMC6385813, “Macrocyclisation of small peptides enabled by oxetane incorporation” (Chemical Science, 2019)

Assay: head-to-tail lactamisation of free linear peptides (H-/-OH), DEPBT (2 equiv), iPr2EtN (2 equiv)
Conditions: DMF, 1.0 mM, 25.0 °C

Molecule `CC(C)C[C@@H]1NC(=O)[C@H](Cc2c[nH]c3ccccc23)NC(=O)CNC2(COC2)[C@H](C)NC1=O` [H-Trp-Leu-AOx-Gly-OH] has a ring closure, isolated yield (from CC(C)C[C@H](NC(=O)[C@@H](N)Cc1c[nH]c2ccccc12)C(=O)N[C@@H](C)C1(NCC(=O)O)COC1, 12-membered ring, 48.0 h) of 50%.
Molecule `CC(C)C[C@@H]1NC(=O)[C@H](Cc2ccc(O)cc2)NC(=O)[C@H](C)NCCNC(=O)[C@H](C)NC1=O` [H-Leu-Ala-NHCH2CH2-Ala-Tyr-OH] has a ring closure, isolated yield (from CC(C)C[C@H](N)C(=O)N[C@@H](C)C(=O)NCCN[C@@H](C)C(=O)N[C@@H](Cc1ccc(O)cc1)C(=O)O, 15-membered ring, 24.0 h) of 28%.
In the case of `CC(C)C[C@@H]1NC(=O)[C@H](Cc2ccc(O)cc2)NC(=O)[C@H](C)NC2(CNC(=O)[C@H](C)NC1=O)COC2` [H-Tyr-Leu-Ala-GOx-Ala-OH], the ring closure, isolated yield (from CC(C)C[C@H](NC(=O)[C@@H](N)Cc1ccc(O)cc1)C(=O)N[C@@H](C)C(=O)NCC1(N[C@@H](C)C(=O)O)COC1, 15-membered ring, 24.0 h) is reported as 31%.
In the case of `CC(C)C[C@@H]1NC(=O)[C@H](Cc2c[nH]c3ccccc23)NC(=O)CNC2(CNC1=O)COC2` [H-Trp-Leu-GOx-Gly-OH], the ring closure, isolated yield (from CC(C)C[C@H](NC(=O)[C@@H](N)Cc1c[nH]c2ccccc12)C(=O)NCC1(NCC(=O)O)COC1, 12-membered ring, 48.0 h) is reported as 65%.
For `CC(C)C[C@@H]1NC(=O)[C@H](Cc2c[nH]c3ccccc23)NC(=O)CNC(=O)CNC1=O` [H-Trp-Leu-Gly-Gly-OH], the ring closure, isolated yield (from CC(C)C[C@H](NC(=O)[C@@H](N)Cc1c[nH]c2ccccc12)C(=O)NCC(=O)NCC(=O)O, 12-membered ring, 48.0 h) was 15%.
With `CC(C)C[C@@H]1NC(=O)[C@H]2CCCN2C(=O)CNC(=O)CNC1=O` [H-D-Pro-Leu-Gly-Gly-OH] the ring closure, isolated yield (from CC(C)C[C@H](NC(=O)[C@H]1CCCN1)C(=O)NCC(=O)NCC(=O)O, 12-membered ring, 48.0 h) was 0%.
`CC(C)C[C@@H]1NC(=O)[C@H](Cc2ccc(O)cc2)NC(=O)[C@H](C)NC2(CNC(=O)[C@H](C)NC1=O)COC2` [H-Ala-GOx-Ala-Tyr-Leu-OH] gave a ring closure, isolated yield (from CC(C)C[C@H](NC(=O)[C@H](Cc1ccc(O)cc1)NC(=O)[C@H](C)NC1(CNC(=O)[C@H](C)N)COC1)C(=O)O, 15-membered ring, 24.0 h) of 57%.
`CC(C)C[C@@H]1NC(=O)[C@H](Cc2ccc(O)cc2)NC(=O)[C@@H]2CCCN2C2(CNC(=O)[C@H](C)NC1=O)COC2` [H-Leu-Ala-GOx-Pro-Tyr-OH] showed a ring closure, isolated yield (from CC(C)C[C@H](N)C(=O)N[C@@H](C)C(=O)NCC1(N2CCC[C@H]2C(=O)N[C@@H](Cc2ccc(O)cc2)C(=O)O)COC1, 15-membered ring, 48.0 h) of 48%.
`CC(C)C[C@@H]1NC(=O)[C@H](Cc2ccc(O)cc2)NC(=O)[C@H](C)NC(C)(C)CNC(=O)[C@H](C)NC1=O` [H-Leu-Ala-NHCH2C(Me)2-Ala-Tyr-OH] gave a ring closure, isolated yield (from CC(C)C[C@H](N)C(=O)N[C@@H](C)C(=O)NCC(C)(C)N[C@@H](C)C(=O)N[C@@H](Cc1ccc(O)cc1)C(=O)O, 15-membered ring, 24.0 h) of 32%.
Molecule `CC(C)C[C@@H]1NC(=O)[C@H](Cc2ccc(O)cc2)NC(=O)[C@@H]2CCCN2C(=O)CNC(=O)[C@H](C)NC1=O` [H-Leu-Ala-Gly-Pro-Tyr-OH] has a ring closure, isolated yield (from CC(C)C[C@H](N)C(=O)N[C@@H](C)C(=O)NCC(=O)N1CCC[C@H]1C(=O)N[C@@H](Cc1ccc(O)cc1)C(=O)O, 15-membered ring) of 13%.
With `CC(C)C[C@@H]1NC(=O)[C@H](Cc2ccc(O)cc2)NC(=O)[C@H](C)NC(=O)CNC(=O)[C@H](C)NC1=O` [H-Gly-Ala-Tyr-Leu-Ala-OH] the ring closure, isolated yield (from CC(C)C[C@H](NC(=O)[C@H](Cc1ccc(O)cc1)NC(=O)[C@H](C)NC(=O)CN)C(=O)N[C@@H](C)C(=O)O, 15-membered ring) was 30%.
Molecule `CC(C)C[C@@H]1NC(=O)[C@H](Cc2ccc(O)cc2)NC(=O)[C@H](C)NC(=O)CN(C)C(=O)[C@H](C)NC1=O` [H-Leu-Ala-Sar-Ala-Tyr-OH] has a ring closure, isolated yield (from CC(C)C[C@H](N)C(=O)N[C@@H](C)C(=O)N(C)CC(=O)N[C@@H](C)C(=O)N[C@@H](Cc1ccc(O)cc1)C(=O)O, 15-membered ring, 24.0 h) of 36%.
Molecule `CC(C)C[C@@H]1NC(=O)[C@H](CC(=O)OC(C)(C)C)NC(=O)CNC(=O)CNC1=O` [H-Asp(tBu)-Leu-Gly-Gly-OH] has a ring closure, isolated yield (from CC(C)C[C@H](NC(=O)[C@@H](N)CC(=O)OC(C)(C)C)C(=O)NCC(=O)NCC(=O)O, 12-membered ring, 48.0 h) of 14%.
`CC(C)C[C@@H]1NC(=O)[C@H](Cc2ccc(O)cc2)NC(=O)[C@H](C)NC2(CNC(=O)[C@H](C)NC1=O)COC2` [H-GOx-Ala-Tyr-Leu-Ala-OH] gave a ring closure, isolated yield (from CC(C)C[C@H](NC(=O)[C@H](Cc1ccc(O)cc1)NC(=O)[C@H](C)NC1(CN)COC1)C(=O)N[C@@H](C)C(=O)O, 15-membered ring, 24.0 h) of 43%.
`CC(C)C[C@@H]1NC(=O)[C@H](Cc2ccc(O)cc2)NC(=O)[C@H](C)NC2(CNC(=O)[C@H](C)NC1=O)COC2` [H-Leu-Ala-GOx-Ala-Tyr-OH] gave a ring closure, isolated yield (from CC(C)C[C@H](N)C(=O)N[C@@H](C)C(=O)NCC1(N[C@@H](C)C(=O)N[C@@H](Cc2ccc(O)cc2)C(=O)O)COC1, 15-membered ring, 24.0 h) of 51%.
Molecule `CC(C)C[C@@H]1NC(=O)[C@H](CC(=O)OC(C)(C)C)NC(=O)CNC2(CNC1=O)COC2` [H-Asp(tBu)-Leu-GOx-Gly-OH] has a ring closure, isolated yield (from CC(C)C[C@H](NC(=O)[C@@H](N)CC(=O)OC(C)(C)C)C(=O)NCC1(NCC(=O)O)COC1, 12-membered ring, 48.0 h) of 49%.
`CC(C)C[C@@H]1NC(=O)[C@H](Cc2ccc(O)cc2)NC(=O)[C@H](C)NC(=O)CNC(=O)[C@H](C)NC1=O` [H-Ala-Gly-Ala-Tyr-Leu-OH] showed a ring closure, isolated yield (from CC(C)C[C@H](NC(=O)[C@H](Cc1ccc(O)cc1)NC(=O)[C@H](C)NC(=O)CNC(=O)[C@H](C)N)C(=O)O, 15-membered ring, 24.0 h) of 40%.
For `CC(C)C[C@@H]1NC(=O)[C@H](Cc2ccc(O)cc2)NC(=O)[C@H](C)NC(=O)CNC(=O)[C@H](C)NC1=O` [H-Tyr-Leu-Ala-Gly-Ala-OH], the ring closure, isolated yield (from CC(C)C[C@H](NC(=O)[C@@H](N)Cc1ccc(O)cc1)C(=O)N[C@@H](C)C(=O)NCC(=O)N[C@@H](C)C(=O)O, 15-membered ring) was 24%.
`CC(C)C[C@@H]1NC(=O)[C@H](Cc2ccc(O)cc2)NC(=O)[C@H](C)NC(=O)C(C)(C)NC(=O)[C@H](C)NC1=O` [H-Leu-Ala-Aib-Ala-Tyr-OH] showed a ring closure, isolated yield (from CC(C)C[C@H](N)C(=O)N[C@@H](C)C(=O)NC(C)(C)C(=O)N[C@@H](C)C(=O)N[C@@H](Cc1ccc(O)cc1)C(=O)O, 15-membered ring, 24.0 h) of 29%.
In the case of `CC(C)C[C@@H]1NC(=O)[C@H](Cc2ccc(O)cc2)NC(=O)[C@H](C)NC(=O)CCNC(=O)[C@H](C)NC1=O` [H-Leu-Ala-βAla-Ala-Tyr-OH], the ring closure, isolated yield (from CC(C)C[C@H](N)C(=O)N[C@@H](C)C(=O)NCCC(=O)N[C@@H](C)C(=O)N[C@@H](Cc1ccc(O)cc1)C(=O)O, 16-membered ring, 24.0 h) is reported as 39%.
In the case of `CC(C)C[C@@H]1NC(=O)[C@H](Cc2c[nH]c3ccccc23)NC(=O)CNC(=O)[C@H](C)NC1=O` [H-Trp-Leu-Ala-Gly-OH], the ring closure, isolated yield (from CC(C)C[C@H](NC(=O)[C@@H](N)Cc1c[nH]c2ccccc12)C(=O)N[C@@H](C)C(=O)NCC(=O)O, 12-membered ring, 48.0 h) is reported as 21%.
